Experimental data published in US4734409A, “Cephalosporin derivative, process for producing the same and pharmaceutical composition containing the same” (Kureha Kagaku Kogyo Kabushiki Kaisha, priority 1984, dated 1988).

Key:
in vitro = in vitro ADME, Staphylococcus aureus; settings: rat, s9
Experimental: As a model experiment for verifying the stability of the present compound in Example 1 in the living body, the following procedures were adopted. The same test solution of the present compound as in Example 6 was prepared by mixing 0.1 ml of the dispersion of the present compound and 0.9 ml of S-9 mix, and shaking the mixture for 20 min at 37° C. As a control, a mixture of 0.1 ml of the dispersion of the present compound and 0.9 ml of the 0.2M phosphoric acid buffer was shaken for 20 min at 37° C. As the test bacteria, Staphylococcus aureus IAM 1011 was inoculated in Mueller-Hinton culture medium, and after incubating the inoculum for 18 hours at 37° C., the number of bacteria in the medium was adjusted to 10^8 /ml and the thus adjusted, cultured medium was mixed with 50 times by volume of Mueller-Hinton culture medium. After preparing an agar plate from the mixture, a penicillin cup of 8 mm in diameter was placed on the agar plate, and 0.1 ml of the test solution prepared above was put into the cup. After leaving the thus prepared agar plate for 2 hours at 4° C., the agar plate was subjected to culture for 18 hours at 37° C. to measure the diameter of a proliferation-inhibiting circle appearing on the agar plate. From a calibration curve preliminarily prepared between the concentration of the present compound and the diameter of the proliferation-inhibiting circle, the concentration of the present compound in the test solution and the control was obtained. By using the thus obtained concentration, the rate of retaining the antibacterial activity (Rate (%)) was calculated from the following formula and is shown in Table 5. [formula] As a comparative experiment, the same precedures were carried out except for using Cefotax (a commercialized cephalosporin derivative sold by CHUGAI Pharmaceuticla Co., Ltd., which is represented by the following formula), [drawing 21] instead of the present compound produced in Example 1.

Streptococcus sp. = assay: Effect on the intestinal bacterial colonies: Streptococcus sp. in feces; type: in vivo, Streptococcus sp. (feces of female ICR-JCL mice); settings: after administration; 100 mg/kg orally once a day, 2 days; before administration 6.8
Experimental: (§1) Effect of the present compound on the intestinal bacterial colonies was examined as follows.
(§2) The present compound prepared in Example 2 was orally administered to each of 5 animals of a group of female ICR-JCL mice of 6-weeks-old at a daily dosage of 100 mg/kg once a day for continuous 2 days. Feces of each of the mice were collected before and after one day of the administration, and after diluting thereof with 100 times by weight of an anaerobic diluent (an aqueous phosphoric acid buffer) the thus diluted feces were ground, and 0.1 ml of the thus ground and diluted feces was smeared on each culture medium for each bacterial species (shown in Table 1).
(§3) After incubating the thus prepared culture media at 25° C. for one to five days aerobically in the cases of Escherichia coli, Pseudomonas aeruginosa and the Streptococcus species or anaerobically in the cases of the Lactobacillus acidophilus, Lactobacillus bifidus and the Bacterioides species, the number of each bacteria proliferating on the culture medium was counted.
TATAC the same as above

Lactobacillus bifidus = assay: Effect on the intestinal bacterial colonies: L. bifidus in feces; type: in vivo, Lactobacillus bifidus (feces of female ICR-JCL mice); settings: after administration; 100 mg/kg orally once a day, 2 days; before administration 8.5
Experimental: as §1, §2, §3
(5) Lactobacillus bifidus

[1] = tested on: Lactobacillus acidophilus; assay: Effect on the intestinal bacterial colonies: L. acidophilus in feces; type: in vivo, Lactobacillus acidophilus (feces of female ICR-JCL mice); settings: after administration; 100 mg/kg orally once a day, 2 days; before administration 9.0
Experimental: as §1, §2, §3
(4) Lactobacillus acidophilus
LBS anaerobic, 37° C., 5 days

Bacteroides sp. = assay: Effect on the intestinal bacterial colonies: Bacteroides sp. in feces; type: in vivo, Bacteroides sp. (feces of female ICR-JCL mice); settings: after administration; 100 mg/kg orally once a day, 2 days; before administration 8.3
Experimental: as §1, §2, §3

CO/N=C(\C(=O)N[C@@H]1C(=O)N2C(C(=O)O)=C(CSc3nnc(C)s3)CS[C@H]12)c1csc(NC(=O)C(Cl)Cl)n1 [Example 1, 7β-[2-(2-dichloroacetamido-4-thiazolyl)-(Z)-2-methoxyiminoacetamido]-3-[(2-methyl-1,3,4-thiadiazol-5-yl)thiomethyl]-3-cephem-4-carboxylic acid]
remaining at 20 min (in vitro): 90%

CO/N=C(\C(=O)N[C@@H]1C(=O)N2C(C(=O)OCOC(=O)C(C)(C)C)=C(CSc3nnc(C)s3)CS[C@H]12)c1csc(NC(=O)C(Cl)Cl)n1 [Example 2]
Logarithmic value of the number of bacterial cells per one gram of feces, (3) Streptococcus sp. (Streptococcus sp.): 7.0 Logarithmic value of the number of bacterial cells per one gram of feces | Logarithmic value of the number of bacterial cells per one gram of feces, (5) L. bifidus (Lactobacillus bifidus): 8.5 Logarithmic value of the number of bacterial cells per one gram of feces | Logarithmic value of the number of bacterial cells per one gram of feces, (4) L. acidophilus [1]: 8.9 Logarithmic value of the number of bacterial cells per one gram of feces | Logarithmic value of the number of bacterial cells per one gram of feces, (6) Bacteroides sp. (Bacteroides sp.): 8.2 Logarithmic value of the number of bacterial cells per one gram of feces
